From ChEMBL document CHEMBL3045511, “Effects of Two Isoflavonoids, Osajin and Pomiferin, from Maclura pomifera for Growth and Feeding Disruption in Ostrinia nubilalis” (2001)

Key:
Type in all cases: functional
Ostrinia nubilalis [1] = assay: Effect on growth of female Ostrinia nubilalis (European corn borer) larvae assessed as larval duration at 0.10% of diet dry weight after 6 days relative to control
Ostrinia nubilalis [2] = assay: Effect on growth of male Ostrinia nubilalis (European corn borer) larvae assessed as pupal duration at 0.01% of diet dry weight after 6 days relative to control
Ostrinia nubilalis [3] = assay: Antifeedant activity against Ostrinia nubilalis (European corn borer) larvae assessed as amount excreted at 0.20% of diet dry weight after 5 days relative to control
Ostrinia nubilalis [4] = assay: Antifeedant activity against Ostrinia nubilalis (European corn borer) larvae assessed as growth rate at 0.40% of diet dry weight after 5 days relative to control
Ostrinia nubilalis [5] = assay: Effect on growth of female Ostrinia nubilalis (European corn borer) larvae assessed as pupal weight at 1% of diet dry weight after 6 days relative to control
Ostrinia nubilalis [6] = assay: Effect on growth of male Ostrinia nubilalis (European corn borer) larvae assessed as larval duration at 0.001% of diet dry weight after 6 days relative to control
Ostrinia nubilalis [7] = assay: Antifeedant activity against Ostrinia nubilalis (European corn borer) larvae assessed as amount of weight gain by the insect at 0.10% of diet dry weight after 5 days relative to control
Ostrinia nubilalis [8] = assay: Effect on growth of male Ostrinia nubilalis (European corn borer) larvae assessed as larval duration at 0.01% of diet dry weight after 6 days relative to control
Ostrinia nubilalis [9] = assay: Effect on growth of female Ostrinia nubilalis (European corn borer) larvae assessed as pupal duration at 0.10% of diet dry weight after 6 days relative to control
Ostrinia nubilalis [10] = assay: Effect on growth of female Ostrinia nubilalis (European corn borer) larvae assessed as adult emergence at 0.001% of diet dry weight after 6 days relative to control
Ostrinia nubilalis [11] = assay: Effect on growth of male Ostrinia nubilalis (European corn borer) larvae assessed as larval duration at 1% of diet dry weight after 6 days relative to control
Ostrinia nubilalis [12] = assay: Antifeedant activity against Ostrinia nubilalis (European corn borer) larvae assessed as excretion rate at 0.40% of diet dry weight after 5 days relative to control
Ostrinia nubilalis [13] = assay: Effect on growth of female Ostrinia nubilalis (European corn borer) larvae assessed as adult emergence at 0.01% of diet dry weight after 6 days relative to control
Ostrinia nubilalis [14] = assay: Effect on growth of male Ostrinia nubilalis (European corn borer) larvae assessed as pupal duration at 0.001% of diet dry weight after 6 days relative to control
Ostrinia nubilalis [15] = assay: Effect on growth of male Ostrinia nubilalis (European corn borer) larvae assessed as pupal weight at 0.01% of diet dry weight after 6 days relative to control
Ostrinia nubilalis [16] = assay: Antifeedant activity against Ostrinia nubilalis (European corn borer) larvae assessed as feeding rate at 0.60% of diet dry weight after 5 days relative to control
Ostrinia nubilalis [17] = assay: Effect on growth of male Ostrinia nubilalis (European corn borer) larvae assessed as larval duration at 0.10% of diet dry weight after 6 days relative to control
Ostrinia nubilalis [18] = assay: Effect on growth of female Ostrinia nubilalis (European corn borer) larvae assessed as pupal duration at 0.01% of diet dry weight after 6 days relative to control
Ostrinia nubilalis [19] = assay: Antifeedant activity against Ostrinia nubilalis (European corn borer) larvae assessed as amount excreted at 0.60% of diet dry weight after 5 days relative to control
Ostrinia nubilalis [20] = assay: Effect on growth of female Ostrinia nubilalis (European corn borer) larvae assessed as pupal weight at 0.01% of diet dry weight after 6 days relative to control
Ostrinia nubilalis [21] = assay: Effect on growth of male Ostrinia nubilalis (European corn borer) larvae assessed as pupal duration at 0.10% of diet dry weight after 6 days relative to control
Ostrinia nubilalis [22] = assay: Effect on growth of female Ostrinia nubilalis (European corn borer) larvae assessed as larval duration at 0.01% of diet dry weight after 6 days relative to control
Ostrinia nubilalis [23] = assay: Antifeedant activity against Ostrinia nubilalis (European corn borer) larvae assessed as amount of food consumed at 0.40% of diet dry weight after 5 days relative to control
Ostrinia nubilalis [24] = assay: Effect on growth of male Ostrinia nubilalis (European corn borer) larvae assessed as pupal weight at 0.10% of diet dry weight after 6 days relative to control
Ostrinia nubilalis [25] = assay: Antifeedant activity against Ostrinia nubilalis (European corn borer) larvae assessed as growth rate at 0.20% of diet dry weight after 5 days relative to control
Ostrinia nubilalis [26] = assay: Effect on growth of female Ostrinia nubilalis (European corn borer) larvae assessed as pupal weight at 0.10% of diet dry weight after 6 days relative to control
Ostrinia nubilalis [27] = assay: Effect on growth of male Ostrinia nubilalis (European corn borer) larvae assessed as pupal weight at 1% of diet dry weight after 6 days relative to control
Ostrinia nubilalis [28] = assay: Antifeedant activity against Ostrinia nubilalis (European corn borer) larvae assessed as amount excreted at 0.40% of diet dry weight after 5 days relative to control
Ostrinia nubilalis [29] = assay: Effect on growth of female Ostrinia nubilalis (European corn borer) larvae assessed as pupal duration at 0.001% of diet dry weight after 6 days relative to control
Ostrinia nubilalis [30] = assay: Effect on growth of male Ostrinia nubilalis (European corn borer) larvae assessed as adult emergence at 0.10% of diet dry weight after 6 days relative to control
Ostrinia nubilalis [31] = assay: Effect on growth of male Ostrinia nubilalis (European corn borer) larvae assessed as pupal weight at 0.001% of diet dry weight after 6 days relative to control
Ostrinia nubilalis [32] = assay: Insecticidal activity against Ostrinia nubilalis (European corn borer) larvae assessed as mortality at 0.10 to 0.80% of diet dry weight after 5 days relative to control
Ostrinia nubilalis [33] = assay: Effect on growth of female Ostrinia nubilalis (European corn borer) larvae assessed as pupal weight at 0.001% of diet dry weight after 6 days relative to control
Ostrinia nubilalis [34] = assay: Antifeedant activity against Ostrinia nubilalis (European corn borer) larvae assessed as amount of weight gain by the insect at 0.40% of diet dry weight after 5 days relative to control
Ostrinia nubilalis [35] = assay: Effect on growth of female Ostrinia nubilalis (European corn borer) larvae assessed as larval duration at 0.001% of diet dry weight after 6 days relative to control
Ostrinia nubilalis [36] = assay: Antifeedant activity against Ostrinia nubilalis (European corn borer) larvae assessed as growth rate at 0.10% of diet dry weight after 5 days relative to control
Ostrinia nubilalis [37] = assay: Antifeedant activity against Ostrinia nubilalis (European corn borer) larvae assessed as feeding rate at 0.40% of diet dry weight after 5 days relative to control
Ostrinia nubilalis [38] = assay: Antifeedant activity against Ostrinia nubilalis (European corn borer) larvae assessed as amount of weight gain by the insect at 0.20% of diet dry weight after 5 days relative to control
Ostrinia nubilalis [39] = assay: Antifeedant activity against Ostrinia nubilalis (European corn borer) larvae assessed as amount of weight gain by the insect at 0.80% of diet dry weight after 5 days relative to control
Ostrinia nubilalis [40] = assay: Antifeedant activity against Ostrinia nubilalis (European corn borer) larvae assessed as amount of food consumed at 0.80% of diet dry weight after 5 days relative to control
Ostrinia nubilalis [41] = assay: Antifeedant activity against Ostrinia nubilalis (European corn borer) larvae assessed as excretion rate at 0.80% of diet dry weight after 5 days relative to control
Ostrinia nubilalis [42] = assay: Effect on growth of female Ostrinia nubilalis (European corn borer) larvae assessed as larval duration at 1% of diet dry weight after 6 days relative to control
Ostrinia nubilalis [43] = assay: Antifeedant activity against Ostrinia nubilalis (European corn borer) larvae assessed as amount excreted at 0.80% of diet dry weight after 5 days relative to control
Ostrinia nubilalis [44] = assay: Antifeedant activity against Ostrinia nubilalis (European corn borer) larvae assessed as amount of food consumed at 0.60% of diet dry weight after 5 days relative to control
Ostrinia nubilalis [45] = assay: Effect on growth of male Ostrinia nubilalis (European corn borer) larvae assessed as pupal duration at 1% of diet dry weight after 6 days relative to control
Ostrinia nubilalis [46] = assay: Antifeedant activity against Ostrinia nubilalis (European corn borer) larvae assessed as growth rate at 0.80% of diet dry weight after 5 days relative to control
Ostrinia nubilalis [47] = assay: Antifeedant activity against Ostrinia nubilalis (European corn borer) larvae assessed as amount of food consumed at 0.20% of diet dry weight after 5 days relative to control
Ostrinia nubilalis [48] = assay: Antifeedant activity against Ostrinia nubilalis (European corn borer) larvae assessed as feeding rate at 0.20% of diet dry weight after 5 days relative to control
Ostrinia nubilalis [49] = assay: Effect on growth of female Ostrinia nubilalis (European corn borer) larvae assessed as adult emergence at 1% of diet dry weight after 6 days relative to control
Ostrinia nubilalis [50] = assay: Effect on growth of male Ostrinia nubilalis (European corn borer) larvae assessed as adult emergence at 0.01% of diet dry weight after 6 days relative to control
Ostrinia nubilalis [51] = assay: Effect on growth of male Ostrinia nubilalis (European corn borer) larvae assessed as adult emergence at 1% of diet dry weight after 6 days relative to control
Ostrinia nubilalis [52] = assay: Effect on growth of male Ostrinia nubilalis (European corn borer) larvae assessed as adult emergence at 0.001% of diet dry weight after 6 days relative to control
Ostrinia nubilalis [53] = assay: Antifeedant activity against Ostrinia nubilalis (European corn borer) larvae assessed as excretion rate at 0.20% of diet dry weight after 5 days relative to control
Ostrinia nubilalis [54] = assay: Antifeedant activity against Ostrinia nubilalis (European corn borer) larvae assessed as amount of food consumed at 0.10% of diet dry weight after 5 days relative to control
Ostrinia nubilalis [55] = assay: Antifeedant activity against Ostrinia nubilalis (European corn borer) larvae assessed as amount excreted at 0.10% of diet dry weight after 5 days relative to control
Ostrinia nubilalis [56] = assay: Antifeedant activity against Ostrinia nubilalis (European corn borer) larvae assessed as amount of weight gain by the insect at 0.60% of diet dry weight after 5 days relative to control
Ostrinia nubilalis [57] = assay: Effect on growth of female Ostrinia nubilalis (European corn borer) larvae assessed as pupal duration at 1% of diet dry weight after 6 days relative to control
Ostrinia nubilalis [58] = assay: Antifeedant activity against Ostrinia nubilalis (European corn borer) larvae assessed as growth rate at 0.60% of diet dry weight after 5 days relative to control
Ostrinia nubilalis [59] = assay: Antifeedant activity against Ostrinia nubilalis (European corn borer) larvae assessed as excretion rate at 0.60% of diet dry weight after 5 days relative to control
Ostrinia nubilalis [60] = assay: Effect on growth of female Ostrinia nubilalis (European corn borer) larvae assessed as adult emergence at 0.10% of diet dry weight after 6 days relative to control
Ostrinia nubilalis [61] = assay: Antifeedant activity against Ostrinia nubilalis (European corn borer) larvae assessed as excretion rate at 0.10% of diet dry weight after 5 days relative to control
Ostrinia nubilalis [62] = assay: Antifeedant activity against Ostrinia nubilalis (European corn borer) larvae assessed as feeding rate at 0.10% of diet dry weight after 5 days relative to control
Ostrinia nubilalis [63] = assay: Antifeedant activity against Ostrinia nubilalis (European corn borer) larvae assessed as feeding rate at 0.80% of diet dry weight after 5 days relative to control

CC(C)=CCc1c2c(c3occ(-c4ccc(O)c(O)c4)c(=O)c3c1O)C=CC(C)(C)O2 [POMIFERIN]
Time (Ostrinia nubilalis [1]): 12.1 days | Time (Ostrinia nubilalis [2]): 7.2 days | Activity (Ostrinia nubilalis [3]): 8.2% | Activity (Ostrinia nubilalis [4]): 5.3% | Activity (Ostrinia nubilalis [5]): 109 mg | Time (Ostrinia nubilalis [6]): 10.7 days | Activity (Ostrinia nubilalis [7]): 38.1% | Time (Ostrinia nubilalis [8]): 10.9 days | Time (Ostrinia nubilalis [9]): 6.3 days | Activity (Ostrinia nubilalis [10]): 50% | Time (Ostrinia nubilalis [11]): 11.2 days | Activity (Ostrinia nubilalis [12]): -12% | Activity (Ostrinia nubilalis [13]): 54% | Time (Ostrinia nubilalis [14]): 7 days | Activity (Ostrinia nubilalis [15]): 72 mg | Activity (Ostrinia nubilalis [16]): 23.2% | Time (Ostrinia nubilalis [17]): 11.1 days | Time (Ostrinia nubilalis [18]): 7 days | Activity (Ostrinia nubilalis [19]): 16.1% | Activity (Ostrinia nubilalis [20]): 96 mg | Time (Ostrinia nubilalis [21]): 7.5 days | Time (Ostrinia nubilalis [22]): 11.7 days | Activity (Ostrinia nubilalis [23]): 34.2% | Activity (Ostrinia nubilalis [24]): 74 mg | Activity (Ostrinia nubilalis [25]): 4.7% | Activity (Ostrinia nubilalis [26]): 100 mg | Activity (Ostrinia nubilalis [27]): 72 mg | Activity (Ostrinia nubilalis [28]): 5.4% | Time (Ostrinia nubilalis [29]): 6.7 days | Activity (Ostrinia nubilalis [30]): 25% | Activity (Ostrinia nubilalis [31]): 76 mg | mortality (Ostrinia nubilalis [32]): <=11% | Activity (Ostrinia nubilalis [33]): 85 mg | Activity (Ostrinia nubilalis [34]): 18.2% | Time (Ostrinia nubilalis [35]): 11.7 days | Activity (Ostrinia nubilalis [36]): 13.3% | Activity (Ostrinia nubilalis [37]): 29% | Activity (Ostrinia nubilalis [38]): 17.7% | Activity (Ostrinia nubilalis [39]): 36.5% | Activity (Ostrinia nubilalis [40]): 40.1% | Activity (Ostrinia nubilalis [41]): -10% | Time (Ostrinia nubilalis [42]): 12.9 days | Activity (Ostrinia nubilalis [43]): 23% | Activity (Ostrinia nubilalis [44]): 38.5% | Time (Ostrinia nubilalis [45]): 6.7 days | Activity (Ostrinia nubilalis [46]): 12% | Activity (Ostrinia nubilalis [47]): 36.9% | Activity (Ostrinia nubilalis [48]): 34.6% | Activity (Ostrinia nubilalis [49]): 67% | Activity (Ostrinia nubilalis [50]): 67% | Activity (Ostrinia nubilalis [51]): 60% | Activity (Ostrinia nubilalis [52]): 78% | Activity (Ostrinia nubilalis [53]): -7% | Activity (Ostrinia nubilalis [54]): 33.2% | Activity (Ostrinia nubilalis [55]): 30.4% | Activity (Ostrinia nubilalis [56]): 31.5% | Time (Ostrinia nubilalis [57]): 6.4 days | Activity (Ostrinia nubilalis [58]): 10% | Activity (Ostrinia nubilalis [59]): -12% | Activity (Ostrinia nubilalis [60]): 67% | Activity (Ostrinia nubilalis [61]): 0% | Activity (Ostrinia nubilalis [62]): -1% | Activity (Ostrinia nubilalis [63]): 20.7%
